Our source for the IC50 values is patent publication US20240109918A1, “HETEROCYCLIC COMPOUNDS AND USES THEREOF” (Kumquat Biosciences Inc., priority 2022, published 2024).

In one assay the target is T1, KRASwt (Homo sapiens, UniProt P01116).
T1 construct: made in house; host or cells: E. coli BL21 (DE3)
Briefly: Bio-Biochem-PPI-HTRF Ras-SOS1 interaction assay (KRAS wt). Format: biochemical. To be noted: 5 nM. The procedure, abridged: (§1)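 GST-tagged K-Ras (wt or G12D) with anti-GST-Eu(K) donor was mixed with His-hSOS1 and anti-6His-XL665 acceptor in HEPES pH 7.4/NaCl/DTT/BSA/Igepal buffer, with compound in duplicate from 10 μM down to 0.01 μM. After about 10 min or longer, HTRF 665/620 nm ratio gave IC50.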
Background: TR-FRET usually uses a lanthanide donor and a delayed reading to cut background.

The next assay addresses T2, KRASG12D (Homo sapiens, UniProt P01116, G12D).
T2 construct: made in house; host or cells: E. coli BL21 (DE3)
In words: Bio-Biochem-PPI-HTRF Ras-SOS1 interaction assay (KRAS G12D). The assay is classed as biochemical. As to conditions: 5 nM. The procedure, abridged: as §1

SMILES strings stand for the structures.

T1 sequence (P01116 1-188 isoform P01116-2): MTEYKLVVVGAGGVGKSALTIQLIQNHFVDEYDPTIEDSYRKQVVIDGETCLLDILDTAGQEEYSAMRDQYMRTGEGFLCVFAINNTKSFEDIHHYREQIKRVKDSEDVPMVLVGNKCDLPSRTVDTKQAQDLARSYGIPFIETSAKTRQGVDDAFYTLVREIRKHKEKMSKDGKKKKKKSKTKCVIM
T2 sequence (P01116 1-188 isoform P01116-2 G12D): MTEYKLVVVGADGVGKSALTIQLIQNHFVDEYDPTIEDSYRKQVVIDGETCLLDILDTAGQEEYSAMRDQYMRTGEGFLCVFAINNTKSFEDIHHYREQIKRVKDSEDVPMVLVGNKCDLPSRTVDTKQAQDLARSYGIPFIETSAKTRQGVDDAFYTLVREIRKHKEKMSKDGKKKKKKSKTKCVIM

The term IC50 denotes the midpoint of a concentration-inhibition curve. The low end stands for greater potency, the high end for weaker potency. `Nc1nc2c(-c3c(Cl)cc4c(N5CCCC6(CNCCO6)C5)nc(OC[C@@]56CCCN5C[C@H](F)C6)nc4c3F)ccc(F)c2s1` (stereo partly drawn) [compound 159, 4-(6-chloro-8-fluoro-2-(((2R,7aS)-2-fluorotetrahydro-1H-pyrrolizin-7a(5H)-yl)methoxy)-4-(1-oxa-4,8-diazaspiro[5.5]undecan-8-yl)quinazolin-7-yl)-7-fluorobenzo[d]thiazol-2-amine]: the half-inhibitory concentration (IC50) at KRASwt and against KRASG12D was below 5 µM throughout.

As to `N#Cc1c(N)sc2c(F)ccc(-c3c(Cl)cc4c(N5CCCCC6(CN(C(=O)C7CCC7F)C6)C5)nc(OC[C@@]56CCCN5C[C@H](F)C6)nc4c3F)c12` (stereo partly drawn) [compound 160, 2-amino-4-(6-chloro-8-fluoro-4-(2-(2-fluorocyclobutane-1-carbonyl)-2,6-diazaspiro[3.6]decan-6-yl)-2-(((2R,7aS)-2-fluorotetrahydro-1H-pyrrolizin-7a(5H)-yl)methoxy)quinazolin-7-yl)-7-fluorobenzo[b]thiophene-3-carbonitrile], the IC50 against KRASwt and at KRASG12D was below 5 µM throughout.

As for `C#Cc1c(F)ccc2cc(O)cc(-c3ccc4c(N5CCCC6(CNC6)C5)nc(OC[C@@]56CCCN5C[C@H](F)C6)nc4c3F)c12` [compound 161, 5-ethynyl-6-fluoro-4-(8-fluoro-2-(((2R,7aS)-2-fluorotetrahydro-1H-pyrrolizin-7a(5H)-yl)methoxy)-4-(2,6-diazaspiro[3.5]nonan-6-yl)quinazolin-7-yl)naphthalen-2-ol], the IC50 at KRASwt and at KRASG12D was below 5 µM throughout.

On to `N#Cc1c(N)sc2c(F)ccc(-c3c(Cl)cc4c(N5CCOC6(CN(C(=O)c7cn[nH]n7)C6)C5)nc(OC[C@@]56CCCN5C[C@H](F)C6)nc4c3F)c12` [compound 163, 4-(4-(2-(2H-1,2,3-triazole-4-carbonyl)-5-oxa-2,8-diazaspiro[3.5]nonan-8-yl)-6-chloro-8-fluoro-2-(((2R,7aS)-2-fluorotetrahydro-1H-pyrrolizin-7a(5H)-yl)methoxy)quinazolin-7-yl)-2-amino-7-fluorobenzo[b]thiophene-3-carbonitrile], for which the IC50 on KRASwt and against KRASG12D was below 5 µM in each case.

With `C#Cc1c(F)ccc2cc(O)cc(-c3ncc4c(N5CCCC6(CN(C(=O)[C@@H]7C[C@H]7C#N)C6)C5)nc(OC[C@@]56CCCN5C[C@H](F)C6)nc4c3F)c12` [compound 164, (1R,2R)-2-(6-(7-(8-ethynyl-7-fluoro-3-hydroxynaphthalen-1-yl)-8-fluoro-2-(((2R,7aS)-2-fluorotetrahydro-1H-pyrrolizin-7a(5H)-yl)methoxy)pyrido [4,3-d]pyrimidin-4-yl)-2,6-diazaspiro[3.5]nonane-2-carbonyl)cyclopropane-1-carbonitrile], the IC50 against KRASwt and on KRASG12D was below 5 µM each time.

As for `CC(=O)N1CC2(CCN(c3nc(OC[C@@]45CCCN4C[C@H](F)C5)nc4c(F)c(-c5ccc(F)c6sc(N)nc56)c(Cl)cc34)CC2)C1` [compound 165, 1-(7-(7-(2-amino-7-fluorobenzo[d]thiazol-4-yl)-6-chloro-8-fluoro-2-(((2R,7aS)-2-fluorotetrahydro-1H-pyrrolizin-7a(5H)-yl)methoxy)quinazolin-4-yl)-2,7-diazaspiro[3.5]nonan-2-yl)ethan-1-one], the IC50 against KRASwt and against KRASG12D was below 5 µM in each case.

As to `CC1(C)CN(c2nc(OC[C@@]34CCCN3C[C@H](F)C4)nc3c(F)c(-c4ccc(F)c5sc(N)nc45)c(Cl)cc23)CC2(CNC2)O1` [compound 166, 4-(6-chloro-4-(6,6-dimethyl-5-oxa-2,8-diazaspiro[3.5]nonan-8-yl)-8-fluoro-2-(((2R,7aS)-2-fluorotetrahydro-1H-pyrrolizin-7a(5H)-yl)methoxy)quinazolin-7-yl)-7-fluorobenzo[d]thiazol-2-amine], the IC50 against KRASwt and at KRASG12D was below 5 µM throughout.

Take `N#Cc1c(N)sc2c(F)ccc(-c3c(Cl)cc4c(N5CC(F)(F)OC6(CN(C(=O)C7CC7(F)F)C6)C5)nc(OC[C@@]56CCCN5C[C@H](F)C6)nc4c3F)c12` (stereo partly drawn) [compound 167, 2-amino-4-(6-chloro-4-(2-(2,2-difluorocyclopropane-1-carbonyl)-6,6-difluoro-5-oxa-2,8-diazaspiro [3.5]nonan-8-yl)-8-fluoro-2-(((2R,7aS)-2-fluorotetrahydro-1H-pyrrolizin-7a(5H)-yl)methoxy)quinazolin-7-yl)-7-fluorobenzo[b] thiophene-3-carbonitrile]: the IC50 on KRASwt and against KRASG12D was below 5 µM throughout.

As for `Nc1nc2c(-c3c(Cl)cc4c(N5CCC6(CC5)CN(C(=O)C(F)(F)F)C6)nc(OC[C@@]56CCCN5C[C@H](F)C6)nc4c3F)ccc(F)c2s1` [compound 168, 1-(7-(7-(2-amino-7-fluorobenzo[d]thiazol-4-yl)-6-chloro-8-fluoro-2-(((2R,7aS)-2-fluorotetrahydro-1H-pyrrolizin-7a(5H)-yl)methoxy)quinazolin-4-yl)-2,7-diazaspiro[3.5]nonan-2-yl)-2,2,2-trifluoroethan-1-one], the IC50 against KRASwt is below 5 µM; against KRASG12D it was at least 5 µM.

Turning to `CC(=O)N1CC2(CCCN(c3nc(OC[C@@]45CCCN4C[C@H](F)C5)nc4c(F)c(-c5ccc(F)c6sc(N)c(C#N)c56)c(Cl)cc34)C2)C1` [compound 169, 4-(4-(2-acetyl-2,6-diazaspiro[3.5]nonan-6-yl)-6-chloro-8-fluoro-2-(((2R,7aS)-2-fluorotetrahydro-1H-pyrrolizin-7a(5H)-yl)methoxy)quinazolin-7-yl)-2-amino-7-fluorobenzo[b]thiophene-3-carbonitrile], the IC50 against KRASwt and on KRASG12D was below 5 µM each time.

On to `C#Cc1c(F)ccc2cc(O)cc(-c3nc4c(cc3F)c(N3CCOC5(CNC5)C3)nc(=O)n4-c3c(C)ccnc3C(C)C)c12` [compound 170, 7-(8-ethynyl-7-fluoro-3-hydroxynaphthalen-1-yl)-6-fluoro-1-(2-isopropyl-4-methylpyridin-3-yl)-4-(5-oxa-2,8-diazaspiro[3.5]nonan-8-yl)pyrido[2,3-d]pyrimidin-2(1H)-one], for which the IC50 against KRASwt and on KRASG12D was at least 5 µM throughout.

With `N#Cc1c(N)sc2c(F)ccc(-c3c(Cl)cc4c(N5CCC6(CC5)CN(C(=O)C5CC5(F)F)CCO6)nc(OC[C@@]56CCCN5C[C@H](F)C6)nc4c3F)c12` (stereo partly drawn) [compound 171, 2-amino-4-(6-chloro-4-(4-(2,2-difluorocyclopropane-1-carbonyl)-1-oxa-4,9-diazaspiro[5.5]undecan-9-yl)-8-fluoro-2-(((2R,7aS)-2-fluorotetrahydro-1H-pyrrolizin-7a(5H)-yl)methoxy)quinazolin-7-yl)-7-fluorobenzo[b]thiophene-3-carbonitrile], the half-maximal inhibitory concentration (IC50) against KRASwt and on KRASG12D was below 5 µM in each case.

For `CN1CCC[C@H]1COc1nc(N2CCCC3(CNC3)C2)c2cc(Cl)c(-c3cccc4sc(N)nc34)c(F)c2n1` [compound 172, 4-(6-chloro-8-fluoro-2-(((S)-1-methylpyrrolidin-2-yl)methoxy)-4-(2,6-diazaspiro[3.5]nonan-6-yl)quinazolin-7-yl)benzo[d]thiazol-2-amine], the IC50 at KRASwt and on KRASG12D was below 5 µM each time.

`N#Cc1c(N)sc2c(F)ccc(-c3c(Cl)cc4c(N5CCCC6(CN(C=O)C6)C5)nc(OC[C@@]56CCCN5C[C@H](F)C6)nc4c3F)c12` [compound 173, 2-amino-4-(6-chloro-8-fluoro-2-(((2R,7aS)-2-fluorotetrahydro-1H-pyrrolizin-7a(5H)-yl)methoxy)-4-(2-formyl-2,6-diazaspiro[3.5]nonan-6-yl)quinazolin-7-yl)-7-fluorobenzo[b]thiophene-3-carbonitrile]: the concentration for half-maximal inhibition (IC50) on KRASwt and against KRASG12D was below 5 µM in each case.

In the case of `N#Cc1c(N)sc2c(F)ccc(-c3c(Cl)cc4c(N5CCOC6(CNC6)C5)nc(OC[C@@]56CCCN5C[C@H](F)C6)nc4c3F)c12` [compound 175, 2-amino-4-(6-chloro-8-fluoro-2-(((2R,7aS)-2-fluorotetrahydro-1H-pyrrolizin-7a(5H)-yl)methoxy)-4-(5-oxa-2,8-diazaspiro[3.5]nonan-8-yl)quinazolin-7-yl)-7-fluorobenzo[b]thiophene-3-carbonitrile], the half-inhibitory concentration (IC50) against KRASwt and on KRASG12D was below 5 µM in each case.

For the compound `N#CN1CC2(CCCN(c3nc(OC[C@@]45CCCN4C[C@H](F)C5)nc4c(F)c(-c5ccc(F)c6sc(N)nc56)c(Cl)cc34)C2)C1` [compound 177, 6-(7-(2-amino-7-fluorobenzo [d]thiazol-4-yl)-6-chloro-8-fluoro-2-(((2R,7aS)-2-fluorotetrahydro-1H-pyrrolizin-7a(5H)-yl)methoxy)quinazolin-4-yl)-2,6-diazaspiro[3.5]nonane-2-carbonitrile], the half-maximal inhibitory concentration (IC50) at KRASwt and on KRASG12D was below 5 µM each time.

In the case of `CN(C)C/C=C/C(=O)N1CC2(C1)CN(c1nc(OC[C@@]34CCCN3C[C@H](F)C4)nc3c(F)c(-c4ccc(F)c5sc(N)nc45)c(Cl)cc13)CCO2` [compound 178, (E)-1-(8-(7-(2-amino-7-fluorobenzo[d]thiazol-4-yl)-6-chloro-8-fluoro-2-(((2R,7aS)-2-fluorotetrahydro-1H-pyrrolizin-7a(5H)-yl)methoxy)quinazolin-4-yl)-5-oxa-2,8-diazaspiro[3.5]nonan-2-yl)-4-(dimethylamino)but-2-en-1-one], the IC50 at KRASwt and against KRASG12D was below 5 µM each time.

Regarding `Nc1nc2c(-c3c(Cl)cc4c(N5CCOC6(C5)CN(S(=O)(=O)F)C6)nc(OC[C@@]56CCCN5C[C@H](F)C6)nc4c3F)ccc(F)c2s1` [compound 179, 8-(7-(2-amino-7-fluorobenzo[d]thiazol-4-yl)-6-chloro-8-fluoro-2-(((2R,7aS)-2-fluorotetrahydro-1H-pyrrolizin-7a(5H)-yl)methoxy)quinazolin-4-yl)-5-oxa-2,8-diazaspiro[3.5]nonane-2-sulfonyl fluoride], the half-inhibitory concentration (IC50) was below 5 µM against KRASwt and at least 5 µM on KRASG12D.
